Reference: ChEMBL document CHEMBL3991601, “The target landscape of clinical kinase drugs” (Science, 2017)
The source made the active and inactive calls.

Legend:
[1] = target: Tyrosine-protein kinase ABL1 (Homo sapiens, UniProt P00519)
[2] = target: Cyclin-dependent kinase 1 (Homo sapiens, UniProt P06493)
[3] = target: Cyclin-dependent kinase 4 (Homo sapiens, UniProt P11802)
[4] = target: T1, Ephrin type-B receptor 2 (Homo sapiens, UniProt P29323)
T1 sequence (P29323 whole entry): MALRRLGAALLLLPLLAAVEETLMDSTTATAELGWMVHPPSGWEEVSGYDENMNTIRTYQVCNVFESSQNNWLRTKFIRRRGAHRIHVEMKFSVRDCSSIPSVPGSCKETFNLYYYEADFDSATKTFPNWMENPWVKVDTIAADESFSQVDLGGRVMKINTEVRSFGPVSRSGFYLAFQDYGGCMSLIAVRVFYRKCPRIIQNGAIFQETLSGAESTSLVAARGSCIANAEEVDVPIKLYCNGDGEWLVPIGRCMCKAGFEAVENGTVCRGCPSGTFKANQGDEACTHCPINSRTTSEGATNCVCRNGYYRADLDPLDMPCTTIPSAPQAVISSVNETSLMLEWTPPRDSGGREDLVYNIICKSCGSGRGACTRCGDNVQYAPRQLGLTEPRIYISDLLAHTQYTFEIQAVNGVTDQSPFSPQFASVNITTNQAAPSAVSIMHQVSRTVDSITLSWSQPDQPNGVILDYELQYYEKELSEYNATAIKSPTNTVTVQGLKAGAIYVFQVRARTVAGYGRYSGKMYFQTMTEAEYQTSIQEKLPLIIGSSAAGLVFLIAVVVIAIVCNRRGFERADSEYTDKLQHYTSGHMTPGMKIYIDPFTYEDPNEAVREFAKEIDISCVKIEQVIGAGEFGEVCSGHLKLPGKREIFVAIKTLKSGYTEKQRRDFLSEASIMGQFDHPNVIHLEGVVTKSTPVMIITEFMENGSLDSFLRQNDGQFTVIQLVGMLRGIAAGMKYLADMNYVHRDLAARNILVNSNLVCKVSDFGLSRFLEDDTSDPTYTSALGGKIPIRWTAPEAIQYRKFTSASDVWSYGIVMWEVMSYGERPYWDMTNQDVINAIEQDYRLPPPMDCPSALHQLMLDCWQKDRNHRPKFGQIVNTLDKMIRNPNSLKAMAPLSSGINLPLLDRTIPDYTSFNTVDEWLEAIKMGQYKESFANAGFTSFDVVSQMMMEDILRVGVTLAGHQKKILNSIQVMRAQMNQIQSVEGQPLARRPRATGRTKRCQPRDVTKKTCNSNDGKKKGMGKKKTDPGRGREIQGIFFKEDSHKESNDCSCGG

[5] = target: Fibroblast growth factor receptor 1 (Homo sapiens, UniProt P11362)
Sequence of Fibroblast growth factor receptor 1 (P11362 whole entry): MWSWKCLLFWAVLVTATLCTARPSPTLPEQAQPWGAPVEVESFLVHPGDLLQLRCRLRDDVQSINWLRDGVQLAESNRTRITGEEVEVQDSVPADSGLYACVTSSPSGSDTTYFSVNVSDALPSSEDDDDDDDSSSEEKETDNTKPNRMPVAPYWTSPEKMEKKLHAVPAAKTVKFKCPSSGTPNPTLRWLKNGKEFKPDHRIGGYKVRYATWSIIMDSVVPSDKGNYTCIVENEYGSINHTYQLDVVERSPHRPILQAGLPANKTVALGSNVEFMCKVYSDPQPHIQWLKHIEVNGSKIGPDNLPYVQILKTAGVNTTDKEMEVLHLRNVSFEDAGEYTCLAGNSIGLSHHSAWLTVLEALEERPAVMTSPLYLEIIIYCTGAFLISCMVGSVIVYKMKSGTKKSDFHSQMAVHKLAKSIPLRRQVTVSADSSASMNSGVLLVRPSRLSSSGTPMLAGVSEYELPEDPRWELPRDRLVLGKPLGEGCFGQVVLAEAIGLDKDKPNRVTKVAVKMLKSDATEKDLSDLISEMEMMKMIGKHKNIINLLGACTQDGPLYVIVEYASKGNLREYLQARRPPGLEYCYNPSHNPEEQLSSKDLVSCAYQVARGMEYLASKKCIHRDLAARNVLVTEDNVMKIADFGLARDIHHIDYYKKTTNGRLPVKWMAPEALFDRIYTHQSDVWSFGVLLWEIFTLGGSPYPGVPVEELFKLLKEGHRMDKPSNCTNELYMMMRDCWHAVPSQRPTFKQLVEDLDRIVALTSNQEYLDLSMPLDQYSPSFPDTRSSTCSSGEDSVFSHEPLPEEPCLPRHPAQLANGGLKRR

[6] = target: T2, Dual specificity mitogen-activated protein kinase kinase 3 (Homo sapiens, UniProt P46734)
T2 sequence (P46734 whole entry): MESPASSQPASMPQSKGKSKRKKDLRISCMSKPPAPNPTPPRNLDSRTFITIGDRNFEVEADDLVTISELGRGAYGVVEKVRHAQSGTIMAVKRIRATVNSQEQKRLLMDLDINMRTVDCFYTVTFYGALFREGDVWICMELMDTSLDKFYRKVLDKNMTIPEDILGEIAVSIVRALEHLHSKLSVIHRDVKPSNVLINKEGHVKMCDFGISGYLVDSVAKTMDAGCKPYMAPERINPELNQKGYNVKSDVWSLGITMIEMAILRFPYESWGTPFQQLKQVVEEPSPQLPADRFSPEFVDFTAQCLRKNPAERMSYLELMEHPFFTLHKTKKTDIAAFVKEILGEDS

[7] = target: Mitogen-activated protein kinase 11 (Homo sapiens, UniProt Q15759)
Sequence of Mitogen-activated protein kinase 11 (Q15759 whole entry): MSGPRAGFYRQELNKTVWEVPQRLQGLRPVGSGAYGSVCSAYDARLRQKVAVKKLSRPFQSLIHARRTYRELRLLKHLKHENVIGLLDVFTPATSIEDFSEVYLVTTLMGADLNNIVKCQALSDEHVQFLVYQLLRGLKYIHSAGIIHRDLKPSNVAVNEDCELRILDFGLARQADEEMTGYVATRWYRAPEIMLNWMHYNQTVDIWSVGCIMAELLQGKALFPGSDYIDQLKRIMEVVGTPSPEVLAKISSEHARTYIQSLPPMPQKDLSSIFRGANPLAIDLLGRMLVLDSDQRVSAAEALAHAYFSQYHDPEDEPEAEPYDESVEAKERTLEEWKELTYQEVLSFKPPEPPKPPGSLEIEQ

[8] = target: cAMP-dependent protein kinase catalytic subunit alpha (Homo sapiens, UniProt P17612)
[9] = target: T3, cGMP-dependent protein kinase 1 (Homo sapiens, UniProt Q13976)
T3 sequence (Q13976 whole entry): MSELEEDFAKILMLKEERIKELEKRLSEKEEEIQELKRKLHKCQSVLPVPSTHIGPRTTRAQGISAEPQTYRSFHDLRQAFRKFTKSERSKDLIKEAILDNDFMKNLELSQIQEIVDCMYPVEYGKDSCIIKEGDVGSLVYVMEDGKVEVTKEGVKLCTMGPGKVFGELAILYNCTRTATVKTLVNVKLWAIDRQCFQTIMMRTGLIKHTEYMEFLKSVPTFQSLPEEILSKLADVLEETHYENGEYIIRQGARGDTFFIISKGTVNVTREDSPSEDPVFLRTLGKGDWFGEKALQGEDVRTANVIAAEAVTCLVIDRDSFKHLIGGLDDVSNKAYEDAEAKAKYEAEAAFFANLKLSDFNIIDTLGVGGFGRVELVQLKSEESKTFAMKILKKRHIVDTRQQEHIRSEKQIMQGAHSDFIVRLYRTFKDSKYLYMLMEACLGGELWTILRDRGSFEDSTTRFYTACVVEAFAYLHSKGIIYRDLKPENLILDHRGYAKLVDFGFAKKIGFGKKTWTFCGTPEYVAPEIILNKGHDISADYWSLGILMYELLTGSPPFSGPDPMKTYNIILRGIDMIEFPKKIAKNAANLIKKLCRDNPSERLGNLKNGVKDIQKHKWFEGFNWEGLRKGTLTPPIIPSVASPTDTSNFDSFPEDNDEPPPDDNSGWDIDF

[10] = target: Focal adhesion kinase 1 (Homo sapiens, UniProt Q05397)
Sequence of Focal adhesion kinase 1 (Q05397 whole entry): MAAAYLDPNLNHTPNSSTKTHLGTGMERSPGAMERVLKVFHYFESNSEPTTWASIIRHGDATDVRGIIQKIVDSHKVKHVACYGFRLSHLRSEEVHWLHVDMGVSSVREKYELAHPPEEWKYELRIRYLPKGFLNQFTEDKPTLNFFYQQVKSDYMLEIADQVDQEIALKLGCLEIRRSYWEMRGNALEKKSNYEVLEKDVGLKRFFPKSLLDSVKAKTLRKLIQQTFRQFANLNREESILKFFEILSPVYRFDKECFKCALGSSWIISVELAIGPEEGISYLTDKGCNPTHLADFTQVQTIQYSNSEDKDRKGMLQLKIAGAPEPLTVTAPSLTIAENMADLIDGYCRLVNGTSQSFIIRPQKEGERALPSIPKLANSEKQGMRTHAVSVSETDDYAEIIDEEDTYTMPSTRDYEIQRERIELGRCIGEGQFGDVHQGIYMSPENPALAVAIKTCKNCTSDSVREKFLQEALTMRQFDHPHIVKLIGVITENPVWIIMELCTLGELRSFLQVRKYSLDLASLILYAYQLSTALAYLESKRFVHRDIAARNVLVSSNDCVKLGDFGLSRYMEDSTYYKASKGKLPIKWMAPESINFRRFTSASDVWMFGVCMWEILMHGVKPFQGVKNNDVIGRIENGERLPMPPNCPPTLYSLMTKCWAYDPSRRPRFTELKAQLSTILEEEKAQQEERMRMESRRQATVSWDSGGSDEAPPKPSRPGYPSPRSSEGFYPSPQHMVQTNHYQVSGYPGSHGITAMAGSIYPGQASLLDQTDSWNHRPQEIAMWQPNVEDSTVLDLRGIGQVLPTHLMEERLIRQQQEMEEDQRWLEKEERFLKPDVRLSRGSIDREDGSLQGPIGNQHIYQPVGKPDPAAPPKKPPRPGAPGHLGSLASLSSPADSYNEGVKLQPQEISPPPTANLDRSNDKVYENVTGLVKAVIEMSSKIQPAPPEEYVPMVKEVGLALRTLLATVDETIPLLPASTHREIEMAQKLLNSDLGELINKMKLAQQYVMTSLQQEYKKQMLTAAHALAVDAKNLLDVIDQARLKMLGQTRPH

[11] = target: U5 small nuclear ribonucleoprotein 200 kDa helicase (Homo sapiens, UniProt O75643)
[12] = target: T4, Serine/threonine-protein kinase STK11 (Homo sapiens, UniProt Q15831)
T4 sequence (Q15831 whole entry): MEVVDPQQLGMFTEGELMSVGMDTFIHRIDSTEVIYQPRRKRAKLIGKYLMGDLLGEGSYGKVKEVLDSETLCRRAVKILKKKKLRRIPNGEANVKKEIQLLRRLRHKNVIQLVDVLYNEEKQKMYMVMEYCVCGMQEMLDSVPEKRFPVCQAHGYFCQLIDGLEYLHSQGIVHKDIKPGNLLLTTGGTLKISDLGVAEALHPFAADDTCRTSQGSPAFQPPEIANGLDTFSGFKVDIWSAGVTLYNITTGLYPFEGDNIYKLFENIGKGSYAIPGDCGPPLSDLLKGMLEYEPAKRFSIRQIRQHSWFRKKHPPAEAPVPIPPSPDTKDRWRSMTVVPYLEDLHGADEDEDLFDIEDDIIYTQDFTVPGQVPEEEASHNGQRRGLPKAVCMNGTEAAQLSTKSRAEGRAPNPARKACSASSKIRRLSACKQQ
Further: in the data inactive means no Kd found up to 30 µM.

Sequence of Cyclin-dependent kinase 4 (P11802 whole entry): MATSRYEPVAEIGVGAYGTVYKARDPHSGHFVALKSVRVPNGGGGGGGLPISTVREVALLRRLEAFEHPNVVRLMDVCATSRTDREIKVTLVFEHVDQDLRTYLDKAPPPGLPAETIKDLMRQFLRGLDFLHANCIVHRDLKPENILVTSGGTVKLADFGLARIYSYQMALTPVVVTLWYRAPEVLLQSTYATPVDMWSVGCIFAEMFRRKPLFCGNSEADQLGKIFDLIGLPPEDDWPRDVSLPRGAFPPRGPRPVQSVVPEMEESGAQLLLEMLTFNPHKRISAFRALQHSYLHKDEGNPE
Sequence of Cyclin-dependent kinase 1 (P06493 whole entry): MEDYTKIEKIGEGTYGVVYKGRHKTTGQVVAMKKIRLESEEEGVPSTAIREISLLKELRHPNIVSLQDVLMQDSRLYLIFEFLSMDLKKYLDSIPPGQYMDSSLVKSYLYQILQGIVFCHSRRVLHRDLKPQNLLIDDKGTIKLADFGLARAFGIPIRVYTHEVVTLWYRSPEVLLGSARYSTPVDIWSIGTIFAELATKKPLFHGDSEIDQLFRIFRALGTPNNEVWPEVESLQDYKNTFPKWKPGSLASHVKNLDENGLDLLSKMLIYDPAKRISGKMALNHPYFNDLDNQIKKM
Sequence of Tyrosine-protein kinase ABL1 (P00519 whole entry): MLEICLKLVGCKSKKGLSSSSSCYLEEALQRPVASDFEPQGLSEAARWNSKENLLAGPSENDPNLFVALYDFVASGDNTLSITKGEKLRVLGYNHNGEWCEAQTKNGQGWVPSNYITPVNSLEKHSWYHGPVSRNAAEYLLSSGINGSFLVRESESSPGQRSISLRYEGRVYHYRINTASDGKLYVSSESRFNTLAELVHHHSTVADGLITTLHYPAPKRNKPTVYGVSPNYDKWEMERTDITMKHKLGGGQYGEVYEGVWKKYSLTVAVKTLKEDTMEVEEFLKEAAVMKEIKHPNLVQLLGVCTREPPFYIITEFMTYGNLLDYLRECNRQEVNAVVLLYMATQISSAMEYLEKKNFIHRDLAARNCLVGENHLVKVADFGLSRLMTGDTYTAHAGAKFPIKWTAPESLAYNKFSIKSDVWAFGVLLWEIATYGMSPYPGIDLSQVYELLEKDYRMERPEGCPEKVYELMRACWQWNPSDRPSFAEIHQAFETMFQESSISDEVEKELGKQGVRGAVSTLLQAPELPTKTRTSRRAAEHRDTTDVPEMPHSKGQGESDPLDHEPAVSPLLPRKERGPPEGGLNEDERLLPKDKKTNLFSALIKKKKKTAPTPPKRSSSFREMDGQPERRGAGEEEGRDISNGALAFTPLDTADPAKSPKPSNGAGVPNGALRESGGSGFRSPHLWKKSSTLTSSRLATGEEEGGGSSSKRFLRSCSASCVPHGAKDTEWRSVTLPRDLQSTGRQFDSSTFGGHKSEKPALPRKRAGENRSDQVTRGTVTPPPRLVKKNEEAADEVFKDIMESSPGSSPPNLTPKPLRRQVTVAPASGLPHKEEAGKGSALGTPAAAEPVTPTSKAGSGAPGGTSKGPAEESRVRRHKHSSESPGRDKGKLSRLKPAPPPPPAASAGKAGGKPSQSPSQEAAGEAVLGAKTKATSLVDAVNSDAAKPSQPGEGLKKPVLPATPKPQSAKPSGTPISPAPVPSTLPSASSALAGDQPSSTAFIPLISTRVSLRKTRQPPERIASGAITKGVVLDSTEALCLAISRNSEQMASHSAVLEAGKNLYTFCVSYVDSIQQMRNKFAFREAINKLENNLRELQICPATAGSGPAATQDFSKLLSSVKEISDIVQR

`NC1(c2ccc(-c3nc4ccn5c(=O)[nH]nc5c4cc3-c3ccccc3)cc2)CCC1` [MK-2206] was tested, and the Kd [1] was > 30 µM (inactive), the Kd [2] was > 30 µM (inactive) and the Kd [3] was > 30 µM (inactive). For the same molecule, the Kd [4] was > 30 µM (inactive), the Kd [5] was > 30 µM (inactive) and the Kd [6] was > 30 µM (inactive). The Kd [7] was > 30 µM (inactive), the Kd [8] was > 30 µM (inactive) and the Kd [9] was > 30 µM (inactive). For the same molecule, the Kd [10] was > 30 µM (inactive), the Kd [11] was > 30 µM (inactive) and the Kd [12] was > 30 µM (inactive).
In the case of `O=C1NC(=O)[C@@H](c2cn3c4c(cccc24)CCC3)[C@@H]1c1c[nH]c2ccccc12` [TIVANTINIB], the Kd [1] is reported as > 30 µM (inactive), the Kd [2] is reported as > 30 µM (inactive) and the Kd [3] is reported as > 30 µM (inactive). For the same molecule, the Kd [4] was > 30 µM (inactive), the Kd [5] was > 30 µM (inactive) and the Kd [6] was > 30 µM (inactive). The Kd [7] was > 30 µM (inactive), the Kd [8] was > 30 µM (inactive) and the Kd [9] was > 30 µM (inactive). For the same molecule, the Kd [10] was > 30 µM (inactive), the Kd [11] was > 30 µM (inactive) and the Kd [12] was > 30 µM (inactive).
`CO[C@H]1C[C@@H]2CC[C@@H](C)[C@@](O)(O2)C(=O)C(=O)N2CCCC[C@H]2C(=O)O[C@H]([C@H](C)C[C@@H]2CC[C@@H](OP(C)(C)=O)[C@H](OC)C2)CC(=O)[C@H](C)/C=C(\C)[C@@H](O)[C@@H](OC)C(=O)[C@H](C)C[C@H](C)/C=C/C=C/C=C/1C` [RIDAFOROLIMUS] was tested, and the Kd [1] was > 30 µM (inactive), the Kd [2] was > 30 µM (inactive) and the Kd [3] was > 30 µM (inactive). The Kd [4] was > 30 µM (inactive), the Kd [5] was > 30 µM (inactive) and the Kd [6] was > 30 µM (inactive). For the same molecule, the Kd [7] was > 30 µM (inactive), the Kd [8] was > 30 µM (inactive) and the Kd [9] was > 30 µM (inactive). For the same molecule, the Kd [10] was > 30 µM (inactive), the Kd [11] was > 30 µM (inactive) and the Kd [12] was > 30 µM (inactive).
For `COCC(=O)NC/C=C/c1ccc2ncnc(Nc3ccc(Oc4ccc(C)nc4)c(C)c3)c2c1` [CP-724714], the Kd [1] was > 30 µM (inactive), the Kd [2] was > 30 µM (inactive) and the Kd [3] was > 30 µM (inactive). For the same molecule, the Kd [4] was > 30 µM (inactive), the Kd [5] was > 30 µM (inactive) and the Kd [6] was > 30 µM (inactive). For the same molecule, the Kd [7] was > 30 µM (inactive), the Kd [8] was > 30 µM (inactive) and the Kd [9] was > 30 µM (inactive). For the same molecule, the Kd [10] was > 30 µM (inactive), the Kd [11] was > 30 µM (inactive) and the Kd [12] was > 30 µM (inactive).
`Cn1ncc(Cl)c1-c1cc(C(=O)N[C@H](CN)Cc2ccc(F)c(F)c2)oc1Cl` [UPROSERTIB] was tested, and the Kd [1] was > 30 µM (inactive), the Kd [2] was > 30 µM (inactive) and the Kd [3] was > 30 µM (inactive). The Kd [4] was > 30 µM (inactive), the Kd [5] was > 30 µM (inactive) and the Kd [6] was > 30 µM (inactive). The Kd [7] was > 30 µM (inactive), the Kd [8] was 0.01 µM (active) and the Kd [9] was > 30 µM (inactive). The Kd [10] was > 30 µM (inactive), the Kd [11] was > 30 µM (inactive) and the Kd [12] was > 30 µM (inactive).
For `CCCCCCCCCCCCCCCCCCOP(=O)([O-])OC1CC[N+](C)(C)CC1` [PERIFOSINE], the Kd [1] was > 30 µM (inactive), the Kd [2] was > 30 µM (inactive) and the Kd [3] was > 30 µM (inactive). For the same molecule, the Kd [4] was > 30 µM (inactive), the Kd [5] was > 30 µM (inactive) and the Kd [6] was > 30 µM (inactive). The Kd [7] was > 30 µM (inactive), the Kd [8] was > 30 µM (inactive) and the Kd [9] was > 30 µM (inactive). For the same molecule, the Kd [10] was > 30 µM (inactive), the Kd [11] was > 30 µM (inactive) and the Kd [12] was > 30 µM (inactive).
With `COc1ncc(-c2ccc3nccc(-c4ccnnc4)c3c2)cc1NS(=O)(=O)c1ccc(F)cc1F` [OMIPALISIB] the Kd [1] was > 30 µM (inactive), the Kd [2] was > 30 µM (inactive) and the Kd [3] was > 30 µM (inactive). For the same molecule, the Kd [4] was > 30 µM (inactive), the Kd [5] was > 30 µM (inactive) and the Kd [6] was > 30 µM (inactive). For the same molecule, the Kd [7] was > 30 µM (inactive), the Kd [8] was > 30 µM (inactive) and the Kd [9] was > 30 µM (inactive). The Kd [10] was > 30 µM (inactive), the Kd [11] was > 30 µM (inactive) and the Kd [12] was > 30 µM (inactive).
With `C[C@H]1CNCCCN1S(=O)(=O)c1cccc2cncc(F)c12` the Kd [1] was > 30 µM (inactive), the Kd [2] was > 30 µM (inactive) and the Kd [3] was > 30 µM (inactive). For the same molecule, the Kd [4] was > 30 µM (inactive), the Kd [5] was > 30 µM (inactive) and the Kd [6] was 3.08 µM (active). For the same molecule, the Kd [7] was > 30 µM (inactive), the Kd [8] was > 30 µM (inactive) and the Kd [9] was > 30 µM (inactive). For the same molecule, the Kd [10] was > 30 µM (inactive), the Kd [11] was > 30 µM (inactive) and the Kd [12] was > 30 µM (inactive).
`Cc1cnc(NC(=O)Nc2cc(Br)c(C)cc2OC[C@@H]2CNCCO2)cn1` [RABUSERTIB] was tested, and the Kd [1] was > 30 µM (inactive), the Kd [2] was > 30 µM (inactive) and the Kd [3] was > 30 µM (inactive). For the same molecule, the Kd [4] was > 30 µM (inactive), the Kd [5] was > 30 µM (inactive) and the Kd [6] was > 30 µM (inactive). The Kd [7] was > 30 µM (inactive), the Kd [8] was > 30 µM (inactive) and the Kd [9] was > 30 µM (inactive). The Kd [10] was > 30 µM (inactive), the Kd [11] was > 30 µM (inactive) and the Kd [12] was > 30 µM (inactive).
`Cc1cccc(-c2nn3c(c2-c2ccnc4ccc(C(N)=O)cc24)CCC3)n1` [GALUNISERTIB] was tested, and the Kd [1] was > 30 µM (inactive), the Kd [2] was > 30 µM (inactive) and the Kd [3] was > 30 µM (inactive). The Kd [4] was > 30 µM (inactive), the Kd [5] was > 30 µM (inactive) and the Kd [6] was > 30 µM (inactive). The Kd [7] was > 30 µM (inactive), the Kd [8] was > 30 µM (inactive) and the Kd [9] was > 30 µM (inactive). The Kd [10] was > 30 µM (inactive), the Kd [11] was > 30 µM (inactive) and the Kd [12] was > 30 µM (inactive).
`O=C(Nc1nc2cccc(-c3ccc(CN4CCS(=O)(=O)CC4)cc3)n2n1)C1CC1` [FILGOTINIB] was tested, and the Kd [1] was > 30 µM (inactive), the Kd [2] was > 30 µM (inactive) and the Kd [3] was > 30 µM (inactive). For the same molecule, the Kd [4] was > 30 µM (inactive), the Kd [5] was > 30 µM (inactive) and the Kd [6] was > 30 µM (inactive). The Kd [7] was > 30 µM (inactive), the Kd [8] was > 30 µM (inactive) and the Kd [9] was > 30 µM (inactive). For the same molecule, the Kd [10] was > 30 µM (inactive), the Kd [11] was > 30 µM (inactive) and the Kd [12] was > 30 µM (inactive).
